Experimental data published in ChEMBL document CHEMBL1201862, “PubChem BioAssay data set” (2004).
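1) Cells in 96-well plates. 2) Compound, 48 h, 5 concentrations. 3) Linear interpolation between surrounding doses. 4) Unreached endpoint = highest concentration. GI50 is the concentration that inhibits growth by half.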 Calls of active or inactive are those of the source. No stated cut-off is given here; in the data, active = GI50 up to about 1.1 µM and inactive = higher.

Assays:
Assay in all cases: NCI anticancer screen, dose series, 48 h
[1] = test system: DMS-114
[2] = test system: DMS-273
[3] = test system: LXFL 529
[4] = test system: KM-20L2
[5] = test system: XF498
[6] = test system: M19-MEL
[7] = test system: SNB-78
[8] = test system: HOP-18
[9] = test system: RXF 631

Compound | GI50 [1] | GI50 [2] | GI50 [3] | GI50 [4] | GI50 [5] | GI50 [6] | GI50 [7] | GI50 [8] | GI50 [9]
Cc1cc(O)c2c(c1)OC1(C)CCC3C(C)(C)CCCC34COC2C14 (stereo not drawn) | 13.9 µM (inactive) | 14 µM (inactive) | 15 µM (inactive) | 16.6 µM (inactive) |  |  |  |  | 
CS(=O)(=O)Nc1ccc(Nc2c3ccccc3nc3ccccc23)cc1 | 1.46 µM (inactive) | 0.658 µM (active) | 3.43 µM (inactive) | 3.06 µM (inactive) | 2.6 µM (inactive) | 2.32 µM (inactive) | 7.83 µM (inactive) | 2.82 µM (inactive) | 1.77 µM (inactive)
C=C1CC2(OC1=O)c1ccccc1CCc1ccccc12 | 1.85 µM (inactive) | 3.49 µM (inactive) | 1.7 µM (inactive) | 4.06 µM (inactive) | 2.41 µM (inactive) | 1.83 µM (inactive) | 2.18 µM (inactive) | 1.97 µM (inactive) | 
COc1ccc(-c2cc(-c3cc(C)ccc3O)nc(O)n2)cc1 | 81.8 µM (inactive) | 50.8 µM (inactive) | 64 µM (inactive) | > 100 µM (inactive) |  | > 100 µM (inactive) | 43.7 µM (inactive) | > 100 µM (inactive) | > 100 µM (inactive)
C[C@]12CCCC(=O)C1C[C@H](C(=O)O)CC2 (stereo partly drawn) | > 100 µM (inactive) | > 100 µM (inactive) | > 100 µM (inactive) | > 100 µM (inactive) | > 100 µM (inactive) | > 100 µM (inactive) |  | > 100 µM (inactive) | > 100 µM (inactive)
CC1=C(C)C(=O)C2=C(OCCCO2)C1=O | 18.4 µM (inactive) |  | 18 µM (inactive) | 34.2 µM (inactive) |  | 17.9 µM (inactive) |  |  | 17.7 µM (inactive)
Cc1ccnc(NS(=O)(=O)c2ccc(NC3=CC(=O)C(=O)c4ccccc43)cc2)n1 | > 100 µM (inactive) | > 100 µM (inactive) | > 100 µM (inactive) | > 100 µM (inactive) | > 100 µM (inactive) | > 100 µM (inactive) | > 100 µM (inactive) | > 100 µM (inactive) | > 100 µM (inactive)
COC(=O)C(CC(=O)Nc1ccc(C)cc1)C(=O)C(=O)Nc1ccccc1C(C)C (stereo not drawn) | > 100 µM (inactive) | > 100 µM (inactive) | > 100 µM (inactive) | > 100 µM (inactive) | > 100 µM (inactive) | > 100 µM (inactive) | > 100 µM (inactive) | > 100 µM (inactive) | 
COc1ccc(NC(=O)C(=O)C2NC(=S)NC2=O)c(OC)c1 (stereo not drawn) | > 100 µM (inactive) | > 100 µM (inactive) | > 100 µM (inactive) | > 100 µM (inactive) |  | > 100 µM (inactive) | > 100 µM (inactive) |  | > 100 µM (inactive)
N#C/C(c1nc2ccccc2[nH]1)=c1\s/c(=C/c2ccccc2)c(=O)n1-c1ccccc1 | > 100 µM (inactive) | > 100 µM (inactive) | 96.2 µM (inactive) | > 100 µM (inactive) | 60.8 µM (inactive) | > 100 µM (inactive) |  |  | 
Clc1cc(Cc2cc(Cl)c(Cl)c3c2OCOC3)c2c(c1Cl)COCO2 | 45.5 µM (inactive) | 38.7 µM (inactive) | 37.7 µM (inactive) | > 100 µM (inactive) |  | 82.8 µM (inactive) | 45.1 µM (inactive) | 23.8 µM (inactive) | 
O=C(CSc1nnc(Cc2ccccc2)o1)Nc1ccccc1Cl | > 100 µM (inactive) | > 100 µM (inactive) | > 100 µM (inactive) | > 100 µM (inactive) |  | > 100 µM (inactive) | > 100 µM (inactive) | > 100 µM (inactive) | 
NC(=S)NNC(=O)/C(=C/c1ccc(/C=C(\NC(=O)c2ccccc2)C(=O)NNC(N)=S)cc1)NC(=O)c1ccccc1 | > 71.8 µM (inactive) | > 100 µM (inactive) | 80 µM (inactive) | > 100 µM (inactive) | 70 µM (inactive) | 72.8 µM (inactive) | 53.3 µM (inactive) | > 100 µM (inactive) | 
CCCCCCCCCCNC(=S)OCCCC | 22.9 µM (inactive) | 20.3 µM (inactive) | 22.9 µM (inactive) | 19.1 µM (inactive) | 20.1 µM (inactive) | 35.3 µM (inactive) | 35.3 µM (inactive) | 26.9 µM (inactive) | 26.4 µM (inactive)
O=C(c1cccs1)N(C(=S)N1CCN(c2ccccn2)CC1)C1CCCCC1 | 36.9 µM (inactive) | 43.1 µM (inactive) | 58.6 µM (inactive) | 70.6 µM (inactive) |  |  | > 100 µM (inactive) | > 100 µM (inactive) | 
CN(C)C(=S)/N=c1\ss/c(=N/c2ccccc2)n1C | 77.1 µM (inactive) | > 100 µM (inactive) | > 100 µM (inactive) | > 100 µM (inactive) |  | > 100 µM (inactive) | 32.4 µM (inactive) | > 100 µM (inactive) | 44.6 µM (inactive)
CC(=O)Oc1cc(C)c2c(c1OC(C)=O)CC1(O2)[C@@H](C)CCC2[C@@]3(C)CC[C@H](OC(C)=O)C(C)(C)C3CC[C@]21C (stereo partly drawn) | 2.29 µM (inactive) | 2.25 µM (inactive) | 4.62 µM (inactive) | 14.1 µM (inactive) |  | 2.02 µM (inactive) | 2.24 µM (inactive) | 2.64 µM (inactive) | 5.4 µM (inactive)
O=[N+]([O-])c1ccc(OCCNc2cccc3ccccc23)cc1 | 52.8 µM (inactive) | 46.7 µM (inactive) | 33.3 µM (inactive) | > 100 µM (inactive) | > 100 µM (inactive) | > 100 µM (inactive) |  | > 100 µM (inactive) | > 100 µM (inactive)
C[Si](C)(C)OC1(C#N)C2C3CC4C2C(=O)C2C4C3C21 (stereo not drawn) | > 100 µM (inactive) | > 100 µM (inactive) | > 100 µM (inactive) | > 100 µM (inactive) |  | > 100 µM (inactive) | > 100 µM (inactive) | > 100 µM (inactive) | 
O=C(Nc1nc2ccccc2n1Cc1ccc(Cl)cc1)NC12CC3CC(CC(C3)C1)C2 | 24.3 µM (inactive) | 13.8 µM (inactive) | 20.3 µM (inactive) | 64.7 µM (inactive) | 13.4 µM (inactive) | 39.4 µM (inactive) |  | 27.6 µM (inactive) | 
N#C/N=C(\NCCc1c[nH]c2ccccc12)NCc1ccccc1 | 32.9 µM (inactive) | 69.2 µM (inactive) | 48.2 µM (inactive) | 16.3 µM (inactive) | 29.6 µM (inactive) | 81.3 µM (inactive) | > 100 µM (inactive) |  | 
CSC1(C)CC2C(CC1N1CCOCC1)C2(C)C (stereo not drawn) | > 100 µM (inactive) | > 100 µM (inactive) | > 100 µM (inactive) |  | > 100 µM (inactive) | > 100 µM (inactive) | > 100 µM (inactive) | > 100 µM (inactive) | 
CC(C)CCC[C@@H](C)C1CCC2[C@@H]3CC=C4C[C@@H](C(=O)NCCN(C)C)CC[C@]4(C)C3CC[C@@]21C (stereo partly drawn) | 14.8 µM (inactive) | 24.4 µM (inactive) | 13.9 µM (inactive) | 83 µM (inactive) | 8.11 µM (inactive) | 19.7 µM (inactive) | > 100 µM (inactive) | 22.4 µM (inactive) | 
CCCC(OCC)(OCC)OCC | 69 µM (inactive) | 52.1 µM (inactive) | > 100 µM (inactive) | > 100 µM (inactive) | > 100 µM (inactive) | > 100 µM (inactive) | > 100 µM (inactive) | > 100 µM (inactive) | > 100 µM (inactive)
O=c1c(O)cccn1C1OC(CO)C(O)C1O (stereo not drawn) | > 100 µM (inactive) | > 100 µM (inactive) | > 100 µM (inactive) | > 100 µM (inactive) |  |  | > 100 µM (inactive) | > 100 µM (inactive) | > 100 µM (inactive)
CC1=Nc2c(ccc3c2C(=O)c2ccccc2C3=O)NC(c2cccc3c2CCC3)C1 (stereo not drawn) |  | > 73.6 µM (inactive) | > 100 µM (inactive) | > 100 µM (inactive) | > 100 µM (inactive) | > 43.4 µM (inactive) | > 100 µM (inactive) | > 67.3 µM (inactive) | 70.1 µM (inactive)
CC(=O)OC1CC2C(C)(C)C(=O)C=C[C@]2(C)C2CCC3(C)C(c4ccoc4)C(=O)[C@H]4O[C@]43[C@]12C (stereo partly drawn) | > 100 µM (inactive) |  | 33.7 µM (inactive) | > 10 µM (inactive) |  | 20.4 µM (inactive) | 57.8 µM (inactive) |  | 
C=CCOc1cc2c(cc1C(C)c1ccc(OC)cc1)OCO2 (stereo not drawn) | 0.289 µM (active) | 0.421 µM (active) | 0.718 µM (active) | 0.348 µM (active) | 0.287 µM (active) | 0.718 µM (active) | 1.46 µM (inactive) |  | 
C[C@]12C=CC(=O)C=C1CC[C@H]1[C@@H]3C[C@@H](O)[C@](O)(C(=O)CO)[C@@]3(C)C[C@H](O)[C@@]12F [TRIAMCINOLONE] | > 100 µM (inactive) | > 100 µM (inactive) | > 100 µM (inactive) | > 100 µM (inactive) | > 100 µM (inactive) | > 100 µM (inactive) | > 100 µM (inactive) |  | > 100 µM (inactive)
